Data taken from ChEMBL document CHEMBL1156586, “Structure-activity relationship studies of permeability modulating peptide AT-1002” (Bioorg Med Chem Lett, 2008).
*1 amine or outer side, *2 acyl side, *3 side chain or, on linkers, in order; H or OH if unused. Where a SMILES comes first, the peptide text is derived from it. Bridges are numbered along the chain shown (N, C = ends). Roman numbers before positions name the chains, in order. [ ]: non-standard residue; d: D form. X1 = O=C([C@H](/C=C/c1ccccc1)N[*:1])[*:2]; Leu(4,5-dehydro) = C=C(C)C[C@H](N)C(=O)O; Phe(4-CN) = N#Cc1ccc(C[C@H](N)C(=O)O)cc1; Phe(3-Me) = Cc1cccc(C[C@H](N)C(=O)O)c1; Met(O2) = CS(=O)(=O)CC[C@H](N)C(=O)O; Ala(cPr) = N[C@@H](CC1CC1)C(=O)O; 2Pal = N[C@@H](Cc1ccccn1)C(=O)O; Met(O) = CS(=O)CC[C@H](N)C(=O)O; 2Thi = N[C@@H](Cc1cccs1)C(=O)O; Cha = N[C@@H](CC1CCCCC1)C(=O)O; Tle = CC(C)(C)[C@H](N)C(=O)O; Dab = NCC[C@H](N)C(=O)O; Nva = CCC[C@H](N)C(=O)O; Abu = CC[C@H](N)C(=O)O

Legend:
Caco-2 [1] = assay: Permeability from apical to basolateral side of human Caco-2 cell monolayers assessed as increase in lucifer yellow flux at 7.0 mM relative to untreated control; format: ADME, cell-based; details: caco-2, 7000 µM
Caco-2 [2] = assay: Effect on integrity in human Caco-2 cell monolayers assessed as transepithelial resistance by epithelial voltohmmeter relative to control; format: ADME, cell-based; set-up: concentration or dose not given beside the values

Structure (SMILES)	fold change (FC) (Caco-2 [1])	Activity (Caco-2 [2])
CC[C@H](C)[C@H](NC(=O)[C@H](CS)NC(=O)[C@@H](N)Cc1ccccc1)C(=O)NCC(=O)O (H-FCIG-OH)	2.2	103%
CC[C@H](C)[C@H](NC(=O)[C@H](CS)NC(=O)[C@@H](N)Cc1ccccc1)C(=O)NCC(=O)N[C@@H](CCCNC(=N)N)C(=O)O (H-FCIGR-OH)	31	21%
CC[C@H](C)[C@H](NC(=O)[C@H](Cc1cnc[nH]1)NC(=O)[C@@H](N)Cc1ccccc1)C(=O)NCC(=O)N[C@@H](CCCNC(=N)N)C(=O)N[C@@H](CC(C)C)C(=O)O (H-FHIGRL-OH)	1	102%
CC[C@H](C)[C@H](NC(=O)[C@H](CCCCN)NC(=O)[C@@H](N)Cc1ccccc1)C(=O)NCC(=O)N[C@@H](CCCNC(=N)N)C(=O)N[C@@H](CC(C)C)C(=O)O (H-FKIGRL-OH)	0.4	110%
CC[C@H](C)[C@H](NC(=O)[C@H](CCCNC(=N)N)NC(=O)[C@@H](N)Cc1ccccc1)C(=O)NCC(=O)N[C@@H](CCCNC(=N)N)C(=O)N[C@@H](CC(C)C)C(=O)O (H-FRIGRL-OH)	2.2	102%
CC[C@H](C)[C@H](NC(=O)[C@@H](NC(=O)[C@@H](N)Cc1ccccc1)[C@@H](C)O)C(=O)NCC(=O)N[C@@H](CCCNC(=N)N)C(=O)N[C@@H](CC(C)C)C(=O)O (H-FTIGRL-OH)	3.9	66%
CC[C@H](C)[C@H](NC(=O)[C@@H](NC(=O)[C@@H](N)Cc1ccccc1)C(C)C)C(=O)NCC(=O)N[C@@H](CCCNC(=N)N)C(=O)N[C@@H](CC(C)C)C(=O)O (H-FVIGRL-OH)	5.7	50%
CC[C@H](C)[C@H](NC(=O)[C@H](Cc1ccc(O)cc1)NC(=O)[C@@H](N)Cc1ccccc1)C(=O)NCC(=O)N[C@@H](CCCNC(=N)N)C(=O)N[C@@H](CC(C)C)C(=O)O (H-FYIGRL-OH)	0.6	118%
CC[C@H](C)[C@H](NC(=O)[C@H](Cc1ccccn1)NC(=O)[C@@H](N)Cc1ccccc1)C(=O)NCC(=O)N[C@@H](CCCNC(=N)N)C(=O)N[C@@H](CC(C)C)C(=O)O (H-F[2Pal]IGRL-OH)	0.5	148%
CC[C@H](C)[C@H](NC(=O)[C@H](Cc1cccs1)NC(=O)[C@@H](N)Cc1ccccc1)C(=O)NCC(=O)N[C@@H](CCCNC(=N)N)C(=O)N[C@@H](CC(C)C)C(=O)O (H-F[2Thi]IGRL-OH)	1.4	119%
CC[C@H](C)[C@H](NC(=O)[C@H](CC1CCCCC1)NC(=O)[C@@H](N)Cc1ccccc1)C(=O)NCC(=O)N[C@@H](CCCNC(=N)N)C(=O)N[C@@H](CC(C)C)C(=O)O (H-F[Cha]IGRL-OH)	2.1	68%
CC[C@H](C)[C@H](NC(=O)[C@H](CCS(C)(=O)=O)NC(=O)[C@@H](N)Cc1ccccc1)C(=O)NCC(=O)N[C@@H](CCCNC(=N)N)C(=O)N[C@@H](CC(C)C)C(=O)O (H-F[Met(O2)]IGRL-OH)	0.7	110%
CC[C@H](C)[C@H](NC(=O)[C@H](Cc1cccc(C)c1)NC(=O)[C@@H](N)Cc1ccccc1)C(=O)NCC(=O)N[C@@H](CCCNC(=N)N)C(=O)N[C@@H](CC(C)C)C(=O)O (H-F[Phe(3-Me)]IGRL-OH)	0.6	101%
CC[C@H](C)[C@H](NC(=O)[C@H](Cc1ccc(C#N)cc1)NC(=O)[C@@H](N)Cc1ccccc1)C(=O)NCC(=O)N[C@@H](CCCNC(=N)N)C(=O)N[C@@H](CC(C)C)C(=O)O (H-F[Phe(4-CN)]IGRL-OH)	0.3	118%
CC[C@H](C)[C@H](NC(=O)[C@@H](NC(=O)[C@@H](N)Cc1ccccc1)C(C)(C)C)C(=O)NCC(=O)N[C@@H](CCCNC(=N)N)C(=O)N[C@@H](CC(C)C)C(=O)O (H-F[Tle]IGRL-OH)	6.7	35%
CC[C@H](C)[C@H](NC(=O)[C@H](/C=C/c1ccccc1)NC(=O)[C@@H](N)Cc1ccccc1)C(=O)NCC(=O)N[C@@H](CCCNC(=N)N)C(=O)N[C@@H](CC(C)C)C(=O)O (H-F[X1]IGRL-OH)	1	113%
CC[C@H](C)[C@H](N)C(=O)NCC(=O)N[C@@H](CCCNC(=N)N)C(=O)N[C@@H](CC(C)C)C(=O)O (H-IGRL-OH)	0.9	70%
CC[C@H](C)[C@H](NC(=O)[C@H](CSSC[C@H](NC(=O)[C@@H](N)Cc1ccccc1)C(=O)N[C@H](C(=O)NCC(=O)N[C@@H](CCCNC(=N)N)C(=O)N[C@@H](CC(C)C)C(=O)O)[C@@H](C)CC)NC(=O)[C@@H](N)Cc1ccccc1)C(=O)NCC(=O)N[C@@H](CCCNC(=N)N)C(=O)N[C@@H](CC(C)C)C(=O)O (I: H-FCIGRL-OH / II: H-FCIGRL-OH; disulfide I:2-II:2)	0.7	137%

The next lines start with the values.

fold change (FC) (Caco-2 [1])	Activity (Caco-2 [2])	Structure (SMILES)
0.8	130%	C=CC[C@@H](NC(=O)[C@@H](N)Cc1ccccc1)C(=O)N[C@H](C(=O)NCC(=O)N[C@@H](CCCNC(=N)N)C(=O)N[C@@H](CC(C)C)C(=O)O)[C@@H](C)CC
103	20%	C=CC[C@H](NC(=O)[C@@H](N)Cc1ccccc1)C(=O)N[C@H](C(=O)NCC(=O)N[C@@H](CCCNC(=N)N)C(=O)N[C@@H](CC(C)C)C(=O)O)[C@@H](C)CC
52	11%	CC[C@H](C)[C@H](NC(=O)[C@H](CS)NC(=O)[C@@H](N)Cc1ccccc1)C(=O)NCC(=O)N[C@@H](CCCNC(=N)N)C(=O)N[C@@H](CC(C)C)C(=O)O (H-FCIGRL-OH)
0.7	148%	CC[C@H](C)[C@H](NC(=O)[C@H](CC(=O)O)NC(=O)[C@@H](N)Cc1ccccc1)C(=O)NCC(=O)N[C@@H](CCCNC(=N)N)C(=O)N[C@@H](CC(C)C)C(=O)O (H-FDIGRL-OH)
1.3	104%	CC[C@H](C)[C@H](NC(=O)[C@H](CCC(=O)O)NC(=O)[C@@H](N)Cc1ccccc1)C(=O)NCC(=O)N[C@@H](CCCNC(=N)N)C(=O)N[C@@H](CC(C)C)C(=O)O (H-FEIGRL-OH)
1	121%	CC[C@H](C)[C@H](NC(=O)[C@H](CC(C)C)NC(=O)[C@@H](N)Cc1ccccc1)C(=O)NCC(=O)N[C@@H](CCCNC(=N)N)C(=O)N[C@@H](CC(C)C)C(=O)O (H-FLIGRL-OH)
1.5	83%	CC[C@H](C)[C@H](NC(=O)[C@H](CC(N)=O)NC(=O)[C@@H](N)Cc1ccccc1)C(=O)NCC(=O)N[C@@H](CCCNC(=N)N)C(=O)N[C@@H](CC(C)C)C(=O)O (H-FNIGRL-OH)
1.5	112%	CC[C@H](C)[C@H](NC(=O)[C@H](CCC(N)=O)NC(=O)[C@@H](N)Cc1ccccc1)C(=O)NCC(=O)N[C@@H](CCCNC(=N)N)C(=O)N[C@@H](CC(C)C)C(=O)O (H-FQIGRL-OH)
2.1	94%	CC[C@H](C)[C@H](NC(=O)[C@H](CO)NC(=O)[C@@H](N)Cc1ccccc1)C(=O)NCC(=O)N[C@@H](CCCNC(=N)N)C(=O)N[C@@H](CC(C)C)C(=O)O (H-FSIGRL-OH)
1.1	96%	CC[C@H](NC(=O)[C@@H](N)Cc1ccccc1)C(=O)N[C@H](C(=O)NCC(=O)N[C@@H](CCCNC(=N)N)C(=O)N[C@@H](CC(C)C)C(=O)O)[C@@H](C)CC (H-F[Abu]IGRL-OH)
0.6	111%	CC[C@H](C)[C@H](NC(=O)[C@H](CC1CC1)NC(=O)[C@@H](N)Cc1ccccc1)C(=O)NCC(=O)N[C@@H](CCCNC(=N)N)C(=O)N[C@@H](CC(C)C)C(=O)O (H-F[Ala(cPr)]IGRL-OH)
2.1	94%	CC[C@H](C)[C@H](NC(=O)[C@H](CCN)NC(=O)[C@@H](N)Cc1ccccc1)C(=O)NCC(=O)N[C@@H](CCCNC(=N)N)C(=O)N[C@@H](CC(C)C)C(=O)O (H-F[Dab]IGRL-OH)
1.9	115%	C=C(C)C[C@H](NC(=O)[C@@H](N)Cc1ccccc1)C(=O)N[C@H](C(=O)NCC(=O)N[C@@H](CCCNC(=N)N)C(=O)N[C@@H](CC(C)C)C(=O)O)[C@@H](C)CC (H-F[Leu(4,5-dehydro)]IGRL-OH)
1.1	106%	CC[C@H](C)[C@H](NC(=O)[C@H](CC[S+](C)[O-])NC(=O)[C@@H](N)Cc1ccccc1)C(=O)NCC(=O)N[C@@H](CCCNC(=N)N)C(=O)N[C@@H](CC(C)C)C(=O)O (stereo partly specified) (H-F[Met(O)]IGRL-OH)
1.6	98%	CCC[C@H](NC(=O)[C@@H](N)Cc1ccccc1)C(=O)N[C@H](C(=O)NCC(=O)N[C@@H](CCCNC(=N)N)C(=O)N[C@@H](CC(C)C)C(=O)O)[C@@H](C)CC (H-F[Nva]IGRL-OH)
